Results published in a melting point compilation (Tetko et al.; mined from patent text by program, amines drawn as free bases though some values may be those of a salt).

`CSC(=S)N1Cc2[nH]c3ccccc3c2CC1CO` (stereo unspecified) showed a melting point of 114 to 116 °C. With `COC(=O)CC1C(OC(C)=O)CC(=O)C1C(=O)OC` (stereo unspecified) the melting point was 54 °C. Molecule `COc1cc(OC)c(OC)cc1C=C1CCc2c1oc1ccc(C(=O)O)cc1c2=O` has a melting point of 311 to 313 °C. Work on `COC(=O)CCn1ncc(-c2ccccc2)c1-c1ccccc1` yielded a melting point of 72 to 74 °C. `CCOC(=O)Nc1c(C(=O)c2cccc(Cl)c2)[nH]c2cc(Cl)ccc12` gave a melting point of 188 to 189 °C. Work on `COC(=O)[C@H](CS)NC(=O)[C@@H](O)CO` yielded a melting point of 90 to 92 °C. `CN(C)C(=O)N(N)c1ccc(F)c(Cl)c1` showed a melting point of 88 to 89 °C. Molecule `N#CC1=C(c2cccs2)Nc2n[nH]cc2C1c1cccc(C#N)c1Br` (stereo unspecified) has a melting point of over 280 °C. Molecule `CCCCN(C)CCOc1ccc(Cn2c(-c3ccc(O)cc3)c(C)c3cc(O)ccc32)cc1` has a melting point of 102 to 107 °C. Work on `Cc1ccnc(CSc2nc(C)cc(=O)[nH]2)c1` yielded a melting point of 157 to 158 °C. Molecule `CC1(C)C(=O)N(c2ccc(C#N)c(C(F)(F)F)c2)C(=S)N1CCF` has a melting point of 135 °C. Molecule `CC(=O)c1c(Br)[nH]c(-c2ccncc2)c1C` has a melting point of 205 to 206 °C. For `COC(=O)C(C#N)(CCCN(C)CCc1ccc(OC)c(OC)c1)c1ccc(OC)c(OC)c1` (stereo unspecified), the melting point was 129 to 130 °C. `CCOC(=O)c1ncn2c3ccccc3c(=O)n(C)c12` showed a melting point of 211 to 212 °C. `CC(=O)OCS(=O)(=O)c1c(F)cc(-c2c(-c3ccccc3)noc2C)cc1F` showed a melting point of 165 to 166 °C. Work on `COC(=O)c1cc(N)c(C)s1` yielded a melting point of 90 to 91 °C. With `C[C@@H](c1ccc(-c2ccc(C#N)cn2)cc1)N1CC[C@](CC(C)(C)O)(c2ccc(F)cc2)OC1=O` the melting point was 155 to 157 °C. Molecule `O=c1n(CCCN2CCN(c3ccccc3)CC2)nc2n1-c1ccccc1OC2` has a melting point of 94 to 96 °C. `CCOC(=O)c1c(C(F)(F)F)ncc(C(=O)O)c1OC(C)C` gave a melting point of 97 to 99 °C. Work on `CN1C(=O)C(c2ccc(OC(F)(F)F)c(F)c2)(c2ccc(F)c(-c3cncnc3)c2)N=C1N` (stereo unspecified) yielded a melting point of 102 to 110 °C. Work on `CCc1nc2c(N)nc(C)c(C)c2n1CCOCCNC(=O)NS(=O)(=O)c1ccccc1` yielded a melting point of 201 to 203 °C. Work on `COc1ccc(CCNC(=O)c2ccc3n2Cc2ccccc2N(C(=O)c2ccc(-c4ccccc4C)c(C)c2)C3)cc1` yielded a melting point of 170 to 172 °C. `C#CCOC(=O)Oc1ccc(S(=O)(=O)c2ccc(OC(=O)OCC#C)cc2)cc1` gave a melting point of 112 to 114 °C. For `c1ccc(-c2cn([C@H]3CN4CCC3CC4)nn2)cc1`, the melting point was 132 °C. Molecule `O=C(Nc1ccc(CCN2C(=O)[C@H]3CCC[C@H]3N(C(=O)CN3C(=O)c4ccccc4C3=O)c3ccccc32)cc1)OCc1ccccc1` (relative stereo) has a melting point of 152 to 154 °C. In the case of `COc1ccc(OCC2(CO)CC2)cc1`, the melting point is reported as 80 to 81 °C. For `O=C(O)c1ccccc1CSc1ccc(Br)cc1`, the melting point was 139 to 140 °C. In the case of `CC(CC1(c2ccccc2)C=CCC=C1)OS(C)(=O)=O` (stereo unspecified), the melting point is reported as 51 to 53 °C. `CN(C)CC(O)CC1(O)c2ccccc2CCc2ccccc21` (stereo unspecified) showed a melting point of 144 to 146 °C. `O=C(O)c1ccc(-c2ncn(-c3ccc(C(F)(F)C(F)(F)C(F)(F)F)cc3)n2)cc1` showed a melting point of 225 °C. For `COC(=O)COc1cccc2c(CNS(=O)(=O)CCCCCc3ccccc3)coc12`, the melting point was 84.5 to 85.5 °C. Work on `CCOC(=O)c1oc2ccc(Cl)cc2c1C(=O)OCC` yielded a melting point of 33 to 35 °C. Molecule `COc1cc2c(Nc3ccc(C)c(O)c3)ncnc2cc1OCc1ccncn1` has a melting point of 290 to 291 °C. `Cn1c(Oc2cccc(N=C=S)c2)nc2ccccc21` gave a melting point of 121 to 124 °C. With `CCCCCCCCCCCCCCCc1ccc(C=O)c(O)c1` the melting point was 50 to 54 °C. For `O=C1C=CC2(C=C1)N=C(N1CCN(Cc3cccc(C(F)(F)F)c3)CC1)C=C2c1ccccc1`, the melting point was 135 °C. For `Cc1cccc2c(Cl)c(CCCl)nnc12`, the melting point was 102 to 104 °C. `CCCCCCCCCCCCCCCCCCOc1cc(OCc2ccccc2)cc(C(=O)N(CC(=O)O)CC(=O)O)c1` gave a melting point of 93 to 95 °C. `C[C@]1(COc2ccc(N3CCC(OCC=Cc4ccc(OC(F)(F)F)cc4)CC3)cc2)Cn2cc([N+](=O)[O-])nc2O1` gave a melting point of 214 to 217 °C. For `CCN1CCCC1CNC(=O)c1ccc(O)c(Cl)c1` (stereo unspecified), the melting point was 228 °C. `CSc1ccc(C(=S)N2CCCC2)cc1` showed a melting point of 116 to 118 °C. Molecule `N#CC(C(=O)NCc1ccccc1)C(=O)c1nn(-c2ccc(F)cc2)c2c1CSc1ccc(Cl)cc1-2` (stereo unspecified) has a melting point of 216 to 218 °C. In the case of `CC(C)(C)c1cc(-n2nc3ccccc3n2)c(O)c(C(C)(C)C)c1`, the melting point is reported as 150 to 152 °C. For `Cc1[nH]ccc(=O)c1OCc1ccccc1`, the melting point was 162 to 164 °C. With `CCc1nc2cc(COC)c(Cl)cc2n1-c1ccc(CCOC(=O)NS(=O)(=O)c2ccc(C)cc2)cc1` the melting point was 174 °C. For `CCNC(=O)c1ccc(N2CCN(Cc3cnc4c(c3)[nH]c(=O)n3cccc43)CC2)c(Cl)c1`, the melting point was 266 to 271 °C. In the case of `O=C(O)C1Cc2ccccc2N1c1ncccn1` (stereo unspecified), the melting point is reported as 249 to 250 °C. In the case of `CC1(C)OC(=S)Nc2ccc(-c3csc(C#N)c3)cc21`, the melting point is reported as 242 to 243 °C. `COC(=O)c1ccc(Br)c(CBr)c1` gave a melting point of 100 to 101 °C. `CCCCCCCCCCCCCCCC(=O)OCC(COC(=O)CCCCCCCCCCCCCCC)OC(=O)C1C=CC=CC1(O)C(C)=O` (stereo unspecified) showed a melting point of 43 to 44 °C. Molecule `O=Cc1ccc(OCc2ccccn2)cc1O` has a melting point of 89.2 to 89.7 °C. Molecule `COc1ccc2c(c1)c(C1CCN(CCOc3ccccc3C(=O)O)CC1)cn2Cc1ccoc1` has a melting point of 153 to 154 °C. In the case of `C=Cc1cnc(-c2ncccn2)nc1`, the melting point is reported as 150 °C. Molecule `O=C1CCN(c2ccc(CNC(=O)c3cccnc3Oc3ccc(F)cc3)cc2)CC1` has a melting point of 138 to 139 °C. With `OC(c1ccc(F)cc1)(c1ccc(F)cc1)C1CCN(Cc2ccccc2)CC1` the melting point was 113 to 115 °C. Molecule `COC(=O)CCn1nc(-c2c(-c3ccccc3)nn3ccccc23)ccc1=O` has a melting point of 133 to 134 °C. For `C=CCC1(C)Cc2cc(O)c(Cl)c(Cl)c2C1=O` (stereo unspecified), the melting point was 180 °C. Work on `COc1cc2cc(C(=O)O)cc(-c3ccnc(Cl)c3)c2cc1OC` yielded a melting point of over 250 °C. In the case of `CNc1nccc(Oc2ccc(NC(=O)Nc3ccc(CN4CCN(C(C)(C)C)CC4)c(C(F)(F)F)c3)cc2)n1`, the melting point is reported as 257 to 258 °C. Work on `COC(=O)Cc1sc(SCc2cc(O)nc(C)n2)nc1C` yielded a melting point of 130 to 132 °C. With `CS(=O)(=O)Nc1nc(CCN2CCC(c3c[nH]c4ccccc34)CC2)cs1` the melting point was 141 to 144 °C. With `Nc1sc(-c2ccc(Cl)s2)c(CN(C2CCCCC2)C2CCCCC2)c1C(=O)c1ccc(Cl)cc1` the melting point was 195 to 197 °C. For `N#Cc1c(N2CCc3ccccc3CC2)nc(CO)[nH]c1=O`, the melting point was 196 to 198 °C. `Cc1cc2c(C(C)(C)C)c(O)ccc2o1` gave a melting point of 49.9 °C. Molecule `CC(C)CC1(CCCCN2CCN(c3ccccn3)CC2)C(=O)Nc2ccccc21` (stereo unspecified) has a melting point of 158 to 159 °C. For `CC(=O)Oc1cccc2c(-c3cccs3)c3cccc(OC(C)=O)c3c(OC(C)=O)c12`, the melting point was 260 °C. `CCOC(=O)/C=C/C1N(C(C)C)C(=O)c2ccccc2C1(O)c1ccc(F)cc1OC` (stereo unspecified) gave a melting point of 178 to 179 °C. In the case of `Cc1ccc2c(NCc3ccc(NC(=O)C4CCN(Cc5ccc(C(F)(F)F)cc5)CC4)cc3)nc(N(C)C)nc2c1`, the melting point is reported as 126 to 128 °C. `CN(C)Cc1c(-c2ccccc2)oc2c(CO)cccc2c1=O` gave a melting point of 150 °C. `CCOC(=O)C1=C(C)NC(=S)N(C(=O)OC(C)C)C1c1cccc(Cl)c1Cl` (stereo unspecified) showed a melting point of 157 to 159 °C. With `CSc1ccc2cc[nH]c2c1` the melting point was 91 to 92 °C. Molecule `CN1CCN(CC(=O)Nc2cccc3c2C(=O)c2c-3n[nH]c2-c2ccc(N(C)C)cc2)CC1` has a melting point of over 300 °C. With `CC(C)(C)OC(=O)NCCCc1ccc2c(n1)NCCC2` the melting point was 95.2 to 96.3 °C. For `C[C@]12CC[C@H]3[C@@H](CCC4=CC(=O)CC[C@@]43COC(=O)C34CC5CC(CC(C5)C3)C4)[C@@H]1CCC2=O`, the melting point was 161 to 163 °C. `CN(C)c1ccc2nc(N)c(C#N)c(Cl)c2c1` showed a melting point of 285 °C. In the case of `O=C1c2ccccc2C(=O)c2cc(S(=O)(=O)NCCCN3CCOCC3)ccc21`, the melting point is reported as 151 to 156 °C. Work on `CCCCNC(=O)OC1c2ncccc2C(=O)N1c1ccc2ccc(Cl)nc2n1` (stereo unspecified) yielded a melting point of 215 °C. For `Cc1cc(C(=O)CBr)cc(C)c1O`, the melting point was 128 to 131 °C. Work on `CC(=O)c1ccc(OCc2ccccc2)cc1O` yielded a melting point of 107 to 108 °C. Work on `c1ccc(Oc2cccnc2N2CCNCC2)cc1` yielded a melting point of 56 to 59 °C. `COc1cc2c(cc1Nc1ncc(Cl)c(Nc3ccccc3S(=O)(=O)C(C)C)n1)CCN(CC(=O)N1CCCC1)CC2` gave a melting point of 88 to 105 °C. For `Cn1c([N+](=O)[O-])cnc1C=NN1CCN(CCN2CCOCC2)C1=O`, the melting point was 173 °C. With `C=CC[C@H](NS(=O)(=O)c1ccc(OC)cc1)C(=O)OC(C)(C)C` the melting point was 58 to 59 °C. `Cc1cc(O)c(S(=O)CCC(C)C)c(=O)o1` (stereo unspecified) showed a melting point of 80 to 81 °C. With `CCN(CC)c1cc(C)c2c(c1)C(=O)OC2=O` the melting point was 128 °C. In the case of `O=C(O)CCOc1cccc(F)c1`, the melting point is reported as 90 to 91 °C. Work on `COc1ccc(C(=O)Nc2ccccc2)cc1NS(=O)(=O)c1cccc(C#N)c1` yielded a melting point of 195 to 197 °C. Molecule `O=C(CCCCCNC(=O)C/C=C/c1ccccc1)NO` has a melting point of 127 to 128 °C. `CN1CCC(C2c3ccccc3CCn3ncnc32)CC1` (stereo unspecified) showed a melting point of 134 °C. Molecule `CC(=O)N[C@@H](CSC(=O)C(C)C)C(=O)OC(C)C` has a melting point of 59 to 59.5 °C. `CCc1ccc(Cc2c(OC)cccc2OC)cc1` showed a melting point of 62.5 to 66.5 °C. `CC(C)c1ccc(NCc2ccc(N(C)C)cc2)cc1` gave a melting point of 71 to 73 °C. Molecule `CN(C)CCOc1ccc2c(c1)Cc1cc(OCCN(C)C)ccc1O2` has a melting point of 85 to 86.5 °C. In the case of `CC(C)(C)Oc1ccc(C(N)=O)cc1`, the melting point is reported as 135 to 136 °C. In the case of `NC(=O)c1cc(Cl)c(Sc2ccc(Cl)cc2)c(Cl)c1`, the melting point is reported as 171 to 174 °C. `CNc1nc(C)cc(-n2ccc3ccccc32)n1` showed a melting point of 160 to 162 °C. In the case of `O=S(=O)(C(=CNc1ccccc1)S(=O)(=O)c1ccccc1)c1ccccc1`, the melting point is reported as 199 to 202 °C. With `CC(=O)Nc1ccc(C(=O)Oc2ccccc2)c(OC(C)=O)c1` the melting point was 142 to 143 °C. In the case of `Cc1cc(I)ccc1NC1=CC2=NCN(C)C2=CC1(F)C(=O)NOCC(O)CO` (stereo unspecified), the melting point is reported as 212 to 213 °C. With `Cc1c(CO)c2cnnc(OCc3ccc(F)cc3)c2n1C[C@H]1C[C@@H]1C` the melting point was 128 to 129 °C. For `O=C(CN1C(=O)c2ccccc2C1=O)c1ccc(F)cc1`, the melting point was 140 to 144 °C.
